# Patent USRE39198E1, “Heteroarylpiperidines, pyrrolidines and piperazines and their use as antipsychotics and analgesics” (Aventis Pharmaceuticals Inc., priority 1989, dated 2006)
# Assays:
# [1] = system: CK-1 male mice; experiment: Climbing mouse assay (apomorphine-induced climbing); assay type: in vivo; conditions: apomorphine 1.5 mg/kg sc challenge, climbing score vs control group set to 100%, linear regression
# Description: Antipsychotic activity is determined in the climbing mice assay by a method similar to those described by P. Protais, et al., Psychopharmacol., 50:1 (1976) and B. Costall, Eur. J. Pharmacol., 50:39 (1978).
# Subject […] male mice (23-27 grams) are group-housed under standard laboratory conditions. The mice are individually placed in wire mesh stick cages (4″×10″) and are allowed one hour for adaption and exploration of the new environment. Then apomorphine is injected subcutaneously at 1.5 mg/kg a dose causing climbing in all subjects for 30 minutes.
# For evaluation of climbing, 3 readings are taken at 10. 20, and 30 minutes after apomorphine administration according to the following scale:
# Mice consistently climbing before the injection of apomorphine are discarded.
# With full-developed apomorphine climbing, the animals are hanging on to the cage walls, rather motionless, over long periods of time. By contrast, climbs due to mere motor stimulation usually only last a few seconds.
# The climbing scores are individually totaled (maximal score: 6 per mouse over 3readings) and the total score of the control group (vehicle intraperitoneally-apomorphine subcutaneously) is set to 100%.
# [2] = system: mice; experiment: Phenyl p-quinone writhing assay in mice; assay type: in vivo; conditions: dose effecting approximately 50% inhibition of writhing in mice
# Description: Some of the compounds of the present invention are also useful as analgetics due so their ability to alleviate pain in mammals. […] Exptl. Biol. Med., 95:729 (1937). Thus, for instance the subcutaneous dose effecting an approximately 50% inhibition of writhing (ED50) in mice produced in this assay is as shown in Table 2.
Compound,"CLIMBING MOUSE ASSAY (ED50 mg/kg, ip) [1] [mg/kg]",melting point [°C],also measured
"6-Fluoro-3-[1-[3-[(isoquinol-5-yl)oxy]propyl]-4-piperidinyl]-1,2-benzisoxazole sesquifumarate",0.172,–,–
"CC(=O)c1ccc(CCCCN2CCC(c3noc4cc(F)ccc34)CC2)cc1 [1-[4-(4′-Acetophenyl)butyl]-4-(6-fluoro-1,2-benzisoxazol-3-yl)piperidine]",0.34,–,–
"COc1cc(C(C)=O)ccc1OCCCN1CCC(c2noc3ccccc23)CC1 [1-[4-[3-[4-(1,2-Benzisoxazol-3-yl)-1-piperadinyl]propoxyl]-3-methoxyphenyl]ethanone]",0.67,–,"INHIBITION OF PHENYLQUINONE INDUCED WRITHING ED50 mg/kg, sc [2]: 0.17 mg/kg"
"COc1cc(C(C)=O)ccc1OCCCN1CCC(c2noc3cc(F)ccc23)CC1 [1-[4-[3-[4-(6-Fluoro-1,2-benzisoxazol-3-yl)-1-piperadinyl]propoxy]-3-methoxyphenyl]ethanone]",0.095,–,"INHIBITION OF PHENYLQUINONE INDUCED WRITHING ED50 mg/kg, sc [2]: 0.03 mg/kg"
"COc1cc(C(C)O)ccc1OCCCCN1CCC(c2noc3ccccc23)CC1 (stereo not shown) [1-[4-[4-[4-(1,2-Benzisoxazol-3-yl)-1-piperidinyl]butoxy]-3-methoxyphenyl]ethanol]",–,99 to 101,"ED50 ([1]; Mus musculus, ip): 1.6 mg/kg"
"COc1cc(C(C)=O)ccc1OCCCCN1CCC(c2noc3cc(F)ccc23)CC1 [1-[4-[4-[4-(6-Fluoro-1,2-benzisoxazol-3-yl)-1-piperidinyl)butoxy]-3-methoxyohenylethanone]",0.68,–,–
"Fc1ccc2c(C3CCN(CCC4COc5ccccc5O4)CC3)noc2c1 (stereo not shown) [2-[4-(6-Fluoro-1,2-benzisoxazol-3-yl)-1-piperidinyl]ethyl]-1,4-benzodioxan]",0.29,–,–
"O=C1c2cccc(F)c2C(=O)N1CCN1CCC(c2noc3cc(F)ccc23)CC1 [Example 155, N-[2-[4-(6-Fluoro-1,2-benzisoxazol-3-yl)-1-piperidinyl]ethyl]-3-fluorophthalimide]",–,142 to 143,–
"Cc1ccc2c(c1)C(=O)N(CCN1CCC(c3noc4cc(F)ccc34)CC1)C2=O [Example 157, N-[2-[4-(6-Fluoro-1,2-benzisoxazol-3-yl)-1-piperidinyl]ethyl]-4-methylphthalimide]",–,138 to 140,–
"O=C1c2ccccc2C(=O)N1CCN1CCC(c2noc3cc(F)ccc23)CC1 [N-[2-[4-(6-Fluoro-1,2-benzisoxazol-3-yl)-1-piperidinyl]ethyl]phthalimide]",–,148 to 149,–
